Literature values as cited in patent publication US20050158411A1, “Methods and apparatus to prevent, treat, and cure the symptoms of nauea caused by chemotherapy treatments of human cancers” (priority 2000, published 2005).
“Also recorded” adds a separate entry of the source.

Columns and labels:
[1] = system: fungal infection of the toenails; details: after six months
[2] = system: SARS virus growing in tissue cultures

In the case of `Clc1ccccc1C(c1ccccc1)(c1ccccc1)n1ccnc1` [clotrimazole], the “effectiveness for fungal infection of the toenails” value [1] is given as “equally effective”.

For `NC(=O)c1ncn([C@@H]2O[C@H](CO)[C@@H](O)[C@H]2O)n1` [ribavirin], the “effect against the SARS virus” value [2] is listed as “no evidence that the drug has any effect; also recorded: conclusively shown ineffective”.
